{"source": "patent US8084046B2", "about": "(priority 2001, dated 2011)", "type_in_all_cases": "cell-based", "key": {"S. aureus (MN8) [1]": {"test_system": "S. aureus (MN8)"}, "S. aureus (MN8) [2]": {"test_system": "S. aureus (MN8)", "settings": "24 h"}, "S. aureus MN8 [3]": {"test_system": "S. aureus MN8"}, "S. aureus MN8 [4]": {"test_system": "S. aureus MN8", "design": "ngTSST-1 per CFU: scale not given here", "settings": "for % Reduction / ngTSST-1 per CFU: terpineol 0%"}}, "note": "“And” between values parts separate entries of the source, which are not always exact repeats. Equal entries are not always repeated. Where two headings read alike, the source gives them in different places."}
{"molecule": "CC1CCC(C(C)C)C(O)C1", "note": "(stereo not shown) [Menthol]", "values": [{"measurement": "effect on the growth of S. aureus cells", "setting": "S. aureus (MN8) [1]", "result": "minimal, if any, effect on the growth of S. aureus cells"}, {"measurement": "ng TSST-1 per OD Unit", "setting": "S. aureus (MN8) [2]", "result": 33}]}
{"molecule": "myreth-3-myristate [Cetiol]", "values": [{"measurement": "% CFU/mL × 10^6", "setting": "S. aureus MN8 [3]", "result": "5.9 and 5.0 and 4.2"}, {"measurement": "ng TSST-1 per mL", "setting": "S. aureus MN8 [4]", "result": "1147 and 989 and 1556"}, {"measurement": "% Reduction", "setting": "S. aureus MN8 [4]; Cetiol 2.5 mM", "result": 0, "unit": "%"}, {"measurement": "ngTSST-1 per CFU", "setting": "S. aureus MN8 [4]; Cetiol 2.5 mM", "result": 371, "unit": "ng per CFU"}, {"measurement": "% Reduction", "setting": "S. aureus MN8 [4]; Cetiol 5.0 mM", "result": 39, "unit": "%"}, {"measurement": "ngTSST-1 per CFU", "setting": "S. aureus MN8 [4]; Cetiol 5.0 mM", "result": 196, "unit": "ng per CFU"}, {"measurement": "% Reduction", "setting": "S. aureus MN8 [4]; Cetiol 10.0 mM", "result": 37, "unit": "%"}, {"measurement": "ngTSST-1 per CFU", "setting": "S. aureus MN8 [4]; Cetiol 10.0 mM", "result": 200, "unit": "ng per CFU"}]}
{"molecule": "CC1(O)CCC(C(C)(C)O)CC1", "note": "(stereo not shown) [p-menthane-1,8-diol]", "values": [{"measurement": "ng TSST-1 per OD Unit", "setting": "S. aureus (MN8) [2]", "result": 792}]}
{"molecule": "CC(C)=CCC/C(C)=C/CO", "note": "[Geraniol]", "values": [{"measurement": "ng TSST-1 per OD Unit", "setting": "S. aureus (MN8) [2]", "result": 26}]}
{"molecule": "C=CC(C)(O)CCC=C(C)C", "note": "(stereo not shown) [Linalool]", "values": [{"measurement": "ng TSST-1 per OD Unit", "setting": "S. aureus (MN8) [2]", "result": 421}]}
